One series concerns the target T1, ENaC (Homo sapiens, UniProt P37088+P51168+P51170).
T1 construct: host or cells: primary human bronchial epithelial cells (HBECs) differentiated at air-liquid interface
T1 sequence (P37088 1-669): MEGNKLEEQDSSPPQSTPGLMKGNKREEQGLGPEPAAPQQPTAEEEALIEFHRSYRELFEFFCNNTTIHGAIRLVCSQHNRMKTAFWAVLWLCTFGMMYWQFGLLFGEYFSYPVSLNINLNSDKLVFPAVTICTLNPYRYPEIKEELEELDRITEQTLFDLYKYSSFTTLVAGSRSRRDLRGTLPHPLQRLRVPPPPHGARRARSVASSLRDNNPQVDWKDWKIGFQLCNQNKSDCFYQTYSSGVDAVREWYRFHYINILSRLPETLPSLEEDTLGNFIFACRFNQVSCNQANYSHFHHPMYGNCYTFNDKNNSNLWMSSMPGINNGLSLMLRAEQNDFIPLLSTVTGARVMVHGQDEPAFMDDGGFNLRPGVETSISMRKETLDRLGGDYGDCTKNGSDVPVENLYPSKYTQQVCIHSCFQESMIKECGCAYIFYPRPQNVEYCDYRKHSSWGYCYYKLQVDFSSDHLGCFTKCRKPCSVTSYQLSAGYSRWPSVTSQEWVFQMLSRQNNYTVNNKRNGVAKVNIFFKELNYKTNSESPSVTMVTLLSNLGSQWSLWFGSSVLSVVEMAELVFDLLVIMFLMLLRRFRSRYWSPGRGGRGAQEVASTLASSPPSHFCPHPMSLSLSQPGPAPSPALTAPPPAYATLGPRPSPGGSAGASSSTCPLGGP
T1 sequence (P51168 1-640): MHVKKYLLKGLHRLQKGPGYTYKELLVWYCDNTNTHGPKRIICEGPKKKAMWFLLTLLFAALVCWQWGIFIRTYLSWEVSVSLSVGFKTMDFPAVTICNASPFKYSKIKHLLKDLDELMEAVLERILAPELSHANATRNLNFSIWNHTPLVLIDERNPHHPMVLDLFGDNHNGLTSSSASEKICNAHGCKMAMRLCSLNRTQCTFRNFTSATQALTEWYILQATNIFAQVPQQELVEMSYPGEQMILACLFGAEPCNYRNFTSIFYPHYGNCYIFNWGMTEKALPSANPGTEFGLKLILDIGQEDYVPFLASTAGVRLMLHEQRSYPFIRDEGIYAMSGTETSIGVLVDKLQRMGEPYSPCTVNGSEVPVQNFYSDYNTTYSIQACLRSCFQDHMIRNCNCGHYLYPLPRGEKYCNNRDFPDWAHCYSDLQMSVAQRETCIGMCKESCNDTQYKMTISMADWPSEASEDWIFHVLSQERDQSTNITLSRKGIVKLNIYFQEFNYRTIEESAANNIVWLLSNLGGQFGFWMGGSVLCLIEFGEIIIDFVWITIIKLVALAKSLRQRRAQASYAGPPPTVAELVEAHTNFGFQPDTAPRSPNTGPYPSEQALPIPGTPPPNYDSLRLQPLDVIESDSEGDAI
T1 sequence (P51170 1-649): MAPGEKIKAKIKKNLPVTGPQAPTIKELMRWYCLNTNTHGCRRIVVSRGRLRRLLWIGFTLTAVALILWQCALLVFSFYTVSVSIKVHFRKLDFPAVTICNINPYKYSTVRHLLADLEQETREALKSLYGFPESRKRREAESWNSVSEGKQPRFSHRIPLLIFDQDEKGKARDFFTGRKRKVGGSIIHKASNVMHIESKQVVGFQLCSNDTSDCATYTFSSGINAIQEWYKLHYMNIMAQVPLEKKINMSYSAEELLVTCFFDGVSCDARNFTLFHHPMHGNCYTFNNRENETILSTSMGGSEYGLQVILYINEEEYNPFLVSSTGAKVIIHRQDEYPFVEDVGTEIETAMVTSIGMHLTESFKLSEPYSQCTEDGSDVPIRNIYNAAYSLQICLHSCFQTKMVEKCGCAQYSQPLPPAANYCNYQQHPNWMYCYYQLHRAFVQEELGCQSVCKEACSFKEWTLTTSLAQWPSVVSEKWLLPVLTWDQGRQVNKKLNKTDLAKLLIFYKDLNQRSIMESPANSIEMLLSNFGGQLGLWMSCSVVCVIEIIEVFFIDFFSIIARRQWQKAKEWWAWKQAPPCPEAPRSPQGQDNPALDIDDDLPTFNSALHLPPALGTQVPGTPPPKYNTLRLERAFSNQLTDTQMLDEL
The series can be described thus: Short circuit current assay to determine ENaC blocker potency in human bronchial epithelial cells. In kind it is cell-based. The settings on record: 50% inhibition of total amiloride-sensitive ISC, apical addition, read-out: Averages.ENaC IC50 (nM) Avg. Put shortly: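 Primary human bronchial epithelial cells at air-liquid interface (days 14–21) were voltage-clamped at 0 mV in Ussing chambers (Ringer, pH 7.4, 37° C.). Compounds were added apically as cumulative concentrations, then 10 μM amiloride. IC50 was taken as 50% inhibition of amiloride-sensitive ISC.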

Series [1] is described as follows: Bronchoalveolar lavage (BAL) procedure: compound levels after intratracheal administration. In kind it is in vivo. The settings on record: bronchoalveolar lavage fluid (BAL), other: intratracheal, 0.1 mg/kg, rat, 0.1 mg/mL solution in 5% dextrose, 1 mL/Kg, BAL 6 hours after administration, LC/MS/MS. Here is the method:
Example 69—Bronchoalveolar Lavage (BAL) Procedure A 0.1 mg/mL solution of ENaC inhibitor in 5% dextrose was administered intratracheally to a rat weighing 225-250 g. A volume of 1 mL/Kg was used. After 6 hours, lungs were lavaged with 3×4 mL of sterile saline. A 1 mL aliquot was subsequently snap frozen. Lungs were excised, weighed and snap frozen. Compound levels in the BAL and lung tissue were subsequently determined using LC/MS/MS bioanalysis.

For `CCn1c(CNC(=O)c2nc3cc[nH]c3nc2N)[n+](CC)c2ccc(C(=O)N3CCC(CN(C[C@H](O)[C@@H](O)[C@H](O)[C@H](O)CO)C[C@H](O)[C@@H](O)[C@H](O)[C@H](O)CO)CC3)cc21` [Example 52, 2-[({3-amino-5H-pyrrolo[2,3-b]pyrazin-2-yl}formamido)methyl]-5-[4-({bis[(2S,3R,4R,5R)-2,3,4,5,6-pentahydroxyhexyl]amino}methyl)piperidine-1-carbonyl]-1,3-diethyl-1H-1,3-benzodiazol-3-ium], the IC50 (as a rule, the concentration that inhibits the measured activity by half) at ENaC amounted to 69 nM. Further, in series [1], the concentration at 6 h was determined as 302 ng/mL.

Turning to `CCn1c(CNC(=O)c2nc3cc[nH]c3nc2N)[n+](CC)c2ccc(C(=O)N3CC[C@H](N(C[C@H](O)[C@@H](O)[C@H](O)[C@H](O)CO)C[C@H](O)[C@@H](O)[C@H](O)[C@H](O)CO)C3)cc21` [Example 54, 2-[({3-amino-5H-pyrrolo[2,3-b]pyrazin-2-yl}formamido)methyl]-6-[(3S)-3-{bis[(2S,3R,4R,5R)-2,3,4,5,6-pentahydroxyhexyl]amino}pyrrolidine-1-carbonyl]-1,3-diethyl-1H-1,3-benzodiazol-3-ium], the IC50 at ENaC stood at 49 nM. In series [1], the concentration at 6 h turned out to be 139 ng/mL.

Consider `CCn1c(CNC(=O)c2nc3cc[nH]c3nc2N)[n+](CC)c2ccc(C(=O)N[C@H]3CC[C@H](N(C[C@H](O)[C@@H](O)[C@H](O)[C@H](O)CO)C[C@H](O)[C@@H](O)[C@H](O)[C@H](O)CO)CC3)cc21` [Example 55, 2-[({3-amino-5H-pyrrolo[2,3-b]pyrazin-2-yl}formamido)methyl]-1,3-diethyl-6-{[(1r,4r)-4-{bis[(2S,3R,4R,5R)-2,3,4,5,6-pentahydroxyhexyl]amino}cyclohexyl]carbamoyl}-1H-1,3-benzodiazol-3-ium], for which the concentration for half-maximal inhibition (IC50) at ENaC was determined as 78 nM. The same compound yielded a concentration at 6 h in series [1] of 284 ng/mL.

With `CCn1c(CNC(=O)c2nc3cc[nH]c3nc2N)[n+](CC)c2ccc(C(=O)N[C@H]3CC[C@@H](N(C[C@H](O)[C@@H](O)[C@H](O)[C@H](O)CO)C[C@H](O)[C@@H](O)[C@H](O)[C@H](O)CO)CC3)cc21` [Example 56, 2-[({3-amino-5H-pyrrolo[2,3-b]pyrazin-2-yl}formamido)methyl]-1,3-diethyl-6-{[(1s,4s)-4-{bis[(2S,3R,4R,5R)-2,3,4,5,6-pentahydroxyhexyl]amino}cyclohexyl]carbamoyl}-1H-1,3-benzodiazol-3-ium], the half-inhibitory concentration (IC50) on ENaC is 15 nM. This compound yielded a concentration at 6 h in series [1] of 283 ng/mL.

Take `CCn1c(CNC(=O)c2nc3cc[nH]c3nc2N)[n+](CC)c2ccc(C(=O)N(C)CCCN(C[C@H](O)[C@@H](O)[C@H](O)[C@H](O)CO)C[C@H](O)[C@@H](O)[C@H](O)[C@H](O)CO)cc21` [Example 57, 2-[({3-amino-5H-pyrrolo[2,3-b]pyrazin-2-yl}formamido)methyl]-6-[(3-{bis[(2S,3R,4R,5R)-2,3,4,5,6-pentahydroxyhexyl]amino}propyl)(methyl)carbamoyl]-1,3-diethyl-1H-1,3-benzodiazol-3-ium]: at ENaC, the half-maximal inhibitory concentration (IC50) was determined as 36 nM. In addition, the concentration at 6 h in series [1] stood at 283 ng/mL.

As for `CCn1c(CNC(=O)c2nc3cc[nH]c3nc2N)[n+](CC)c2ccc(C(=O)NCCN(C[C@H](O)[C@@H](O)[C@H](O)[C@H](O)CO)C[C@H](O)[C@@H](O)[C@H](O)[C@H](O)CO)cc21` [Example 58, 2-[({3-amino-5H-pyrrolo[2,3-b]pyrazin-2-yl}formamido)methyl]-6-[(2-{bis[(2S,3R,4R,5R)-2,3,4,5,6-pentahydroxyhexyl]amino}ethyl)carbamoyl]-1,3-diethyl-1H-1,3-benzodiazol-3-ium], the IC50 on ENaC was 78 nM. Also, the concentration at 6 h in series [1] is 256 ng/mL.

The record behind these values is patent US12371436B2, “Substituted benzodiazoliums as ENaC inhibitors” (ENTERPRISE THERAPEUTICS LIMITED, priority 2016, dated 2025).
